The record followed here is ChEMBL document CHEMBL1909046, “DrugMatrix in vitro pharmacology data”.

Assay [1] deals with T1, Alpha-1A adrenergic receptor (Rattus norvegicus, UniProt P43140).
T1 sequence (P43140 whole entry): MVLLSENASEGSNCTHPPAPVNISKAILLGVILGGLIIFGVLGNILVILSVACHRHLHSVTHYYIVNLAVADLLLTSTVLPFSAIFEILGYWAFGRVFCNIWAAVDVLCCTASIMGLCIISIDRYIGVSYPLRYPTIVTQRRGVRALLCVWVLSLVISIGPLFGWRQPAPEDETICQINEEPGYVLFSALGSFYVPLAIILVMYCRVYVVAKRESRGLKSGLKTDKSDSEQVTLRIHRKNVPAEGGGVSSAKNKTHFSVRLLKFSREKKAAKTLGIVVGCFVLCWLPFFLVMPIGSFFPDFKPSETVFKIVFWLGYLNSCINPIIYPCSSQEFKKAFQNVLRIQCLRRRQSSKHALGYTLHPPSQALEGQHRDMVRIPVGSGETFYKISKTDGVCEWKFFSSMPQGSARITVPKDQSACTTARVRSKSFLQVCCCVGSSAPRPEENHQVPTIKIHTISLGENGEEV
Kind of assay: DRUGMATRIX: Alpha-1A adrenergic receptor radioligand binding (ligand: prazosin). The class given is cell membranes, Wistar, Submaxillary gland, Membrane. Conditions: Not Active = under 50% inhibition at 10 µM.

Assay [2] has as its target T2, Adenosine receptor A3 (Homo sapiens, UniProt P0DMS8).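 Note: radioligand binding assay with AB-MECA serving as the labeled ligand; in other assays of this panel Not Active means under 50% inhibition at 10 µM.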
T2 sequence (P0DMS8 whole entry): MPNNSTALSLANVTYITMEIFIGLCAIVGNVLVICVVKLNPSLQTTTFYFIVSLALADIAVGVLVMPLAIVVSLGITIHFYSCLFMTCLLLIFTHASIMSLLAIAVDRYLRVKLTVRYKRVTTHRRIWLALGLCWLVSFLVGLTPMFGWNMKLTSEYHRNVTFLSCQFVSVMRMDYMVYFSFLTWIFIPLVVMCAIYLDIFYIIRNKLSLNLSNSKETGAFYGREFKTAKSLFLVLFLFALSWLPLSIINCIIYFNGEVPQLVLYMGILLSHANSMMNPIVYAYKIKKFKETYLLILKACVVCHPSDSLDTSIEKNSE
The class given is cell membranes, CHO-K1, Membrane.

Assay [3] has as its target Acetylcholinesterase (Homo sapiens, UniProt P22303). Kind of assay: DRUGMATRIX: Acetylcholinesterase enzyme inhibition (substrate: acetylthiocholine). The class given is cell-based, HEK293. Conditions: hek293; Not Active = under 50% inhibition at 10 µM.
Assay [4] concerns the target Vasopressin V1a receptor (Homo sapiens, UniProt P37288). The class given is cell membranes, Membrane. The note with it: hek293. Note: in other assays of this panel Not Active means under 50% inhibition at 10 µM.
The target of assay [5] is T3, 5-hydroxytryptamine receptor 1A (Rattus norvegicus, UniProt P19327). Note: in other assays of this panel Not Active means under 50% inhibition at 10 µM.
T3 sequence (P19327 whole entry): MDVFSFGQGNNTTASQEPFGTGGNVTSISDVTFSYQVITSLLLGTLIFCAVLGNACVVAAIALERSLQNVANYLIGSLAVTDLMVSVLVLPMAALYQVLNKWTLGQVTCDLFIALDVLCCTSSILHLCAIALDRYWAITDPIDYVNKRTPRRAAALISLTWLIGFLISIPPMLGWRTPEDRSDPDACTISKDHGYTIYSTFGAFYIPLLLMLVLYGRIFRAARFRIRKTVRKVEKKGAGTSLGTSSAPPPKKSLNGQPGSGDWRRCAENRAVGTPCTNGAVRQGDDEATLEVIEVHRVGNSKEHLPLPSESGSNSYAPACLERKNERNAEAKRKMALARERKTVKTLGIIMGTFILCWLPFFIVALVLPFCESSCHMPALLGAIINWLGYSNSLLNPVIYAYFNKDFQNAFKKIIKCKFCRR
The class given is cell membranes, CHO-K1, Membrane. The note with it: cho-k1.

In assay [6] the target is Insulin receptor (Rattus norvegicus, UniProt P15127). The class given is cell membranes, Wistar, Liver, Membrane. Note: in other assays of this panel Not Active means under 50% inhibition at 10 µM.
For assay [7], the target named is T4, Neuropeptide Y receptor type 1 (Homo sapiens, UniProt P25929). Note: in other assays of this panel Not Active means under 50% inhibition at 10 µM.
T4 sequence (P25929 whole entry): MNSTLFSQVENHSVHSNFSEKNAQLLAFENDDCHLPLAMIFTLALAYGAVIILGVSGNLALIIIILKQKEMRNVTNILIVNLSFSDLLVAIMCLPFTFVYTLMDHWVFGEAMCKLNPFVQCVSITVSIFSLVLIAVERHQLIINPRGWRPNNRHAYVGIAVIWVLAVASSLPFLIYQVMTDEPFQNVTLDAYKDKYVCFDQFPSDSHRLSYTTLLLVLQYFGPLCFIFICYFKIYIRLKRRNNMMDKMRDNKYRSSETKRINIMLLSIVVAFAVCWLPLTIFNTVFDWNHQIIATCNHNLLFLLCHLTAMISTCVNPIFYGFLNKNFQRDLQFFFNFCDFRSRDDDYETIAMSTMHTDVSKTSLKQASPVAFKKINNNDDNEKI
The class given is cell membranes, Membrane. The note with it: sk-n-mc.

For assay [8], the target named is T5, Cysteinyl leukotriene receptor 1 (Homo sapiens, UniProt Q9Y271). Note: in other assays of this panel Not Active means under 50% inhibition at 10 µM.
T5 sequence (Q9Y271 whole entry): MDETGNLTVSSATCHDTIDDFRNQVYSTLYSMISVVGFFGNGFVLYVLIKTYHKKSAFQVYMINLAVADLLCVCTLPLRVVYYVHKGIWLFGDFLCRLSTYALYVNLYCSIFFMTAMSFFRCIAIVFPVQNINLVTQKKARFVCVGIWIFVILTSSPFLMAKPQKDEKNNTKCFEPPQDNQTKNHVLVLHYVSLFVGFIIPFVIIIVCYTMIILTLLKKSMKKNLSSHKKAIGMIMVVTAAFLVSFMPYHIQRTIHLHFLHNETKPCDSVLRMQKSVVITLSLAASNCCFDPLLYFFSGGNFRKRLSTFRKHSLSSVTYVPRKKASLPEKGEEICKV
The class given is cell membranes, CHO-K1, Membrane. The note with it: cho-k1.

Assay [9] deals with Mitogen-activated protein kinase 3 (Homo sapiens, UniProt P27361). Description: DRUGMATRIX: Protein Serine/Threonine Kinase, ERK1 enzyme inhibition (substrate: Myelin Basic Protein). On the set-up: species or system Escherichia coli. The note with it: Not Active = under 50% inhibition at 10 µM.
Sequence of Mitogen-activated protein kinase 3 (P27361 whole entry): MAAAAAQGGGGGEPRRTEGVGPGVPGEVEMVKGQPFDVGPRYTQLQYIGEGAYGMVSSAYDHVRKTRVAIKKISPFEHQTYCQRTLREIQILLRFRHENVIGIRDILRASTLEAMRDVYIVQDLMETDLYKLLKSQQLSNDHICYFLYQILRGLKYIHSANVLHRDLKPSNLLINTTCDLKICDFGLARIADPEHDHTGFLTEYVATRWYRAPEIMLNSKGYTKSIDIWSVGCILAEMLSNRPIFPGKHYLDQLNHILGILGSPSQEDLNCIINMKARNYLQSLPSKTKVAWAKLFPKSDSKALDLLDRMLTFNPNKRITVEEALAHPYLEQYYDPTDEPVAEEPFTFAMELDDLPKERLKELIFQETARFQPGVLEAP

Sequence of Vasopressin V1a receptor (P37288 whole entry): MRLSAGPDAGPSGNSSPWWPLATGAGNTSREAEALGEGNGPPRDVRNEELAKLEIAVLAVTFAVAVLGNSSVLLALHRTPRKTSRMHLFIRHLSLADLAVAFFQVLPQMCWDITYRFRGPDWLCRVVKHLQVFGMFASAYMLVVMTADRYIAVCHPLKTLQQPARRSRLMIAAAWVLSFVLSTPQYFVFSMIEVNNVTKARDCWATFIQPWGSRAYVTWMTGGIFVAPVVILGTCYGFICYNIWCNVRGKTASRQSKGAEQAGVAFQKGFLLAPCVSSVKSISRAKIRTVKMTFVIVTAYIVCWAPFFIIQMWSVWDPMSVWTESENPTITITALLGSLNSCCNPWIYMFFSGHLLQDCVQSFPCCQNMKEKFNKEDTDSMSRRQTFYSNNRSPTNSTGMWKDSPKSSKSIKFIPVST
Sequence of Acetylcholinesterase (P22303 whole entry): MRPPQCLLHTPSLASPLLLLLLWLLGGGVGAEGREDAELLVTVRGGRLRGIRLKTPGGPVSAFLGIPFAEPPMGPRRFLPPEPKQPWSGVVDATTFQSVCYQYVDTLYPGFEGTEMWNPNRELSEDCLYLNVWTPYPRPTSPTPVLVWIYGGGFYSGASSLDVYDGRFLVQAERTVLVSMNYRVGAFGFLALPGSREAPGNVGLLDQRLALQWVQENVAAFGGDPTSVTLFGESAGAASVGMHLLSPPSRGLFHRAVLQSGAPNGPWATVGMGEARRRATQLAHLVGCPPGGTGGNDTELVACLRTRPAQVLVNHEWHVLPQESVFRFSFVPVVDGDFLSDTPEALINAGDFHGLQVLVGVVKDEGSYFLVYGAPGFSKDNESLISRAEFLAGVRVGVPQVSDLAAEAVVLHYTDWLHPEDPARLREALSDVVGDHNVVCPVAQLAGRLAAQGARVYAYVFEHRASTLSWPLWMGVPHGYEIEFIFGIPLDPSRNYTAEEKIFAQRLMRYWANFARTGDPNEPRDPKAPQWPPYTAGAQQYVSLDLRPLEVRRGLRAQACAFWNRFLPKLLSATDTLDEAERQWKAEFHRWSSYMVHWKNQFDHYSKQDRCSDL
Sequence of Insulin receptor (P15127 27-759 limits assumed): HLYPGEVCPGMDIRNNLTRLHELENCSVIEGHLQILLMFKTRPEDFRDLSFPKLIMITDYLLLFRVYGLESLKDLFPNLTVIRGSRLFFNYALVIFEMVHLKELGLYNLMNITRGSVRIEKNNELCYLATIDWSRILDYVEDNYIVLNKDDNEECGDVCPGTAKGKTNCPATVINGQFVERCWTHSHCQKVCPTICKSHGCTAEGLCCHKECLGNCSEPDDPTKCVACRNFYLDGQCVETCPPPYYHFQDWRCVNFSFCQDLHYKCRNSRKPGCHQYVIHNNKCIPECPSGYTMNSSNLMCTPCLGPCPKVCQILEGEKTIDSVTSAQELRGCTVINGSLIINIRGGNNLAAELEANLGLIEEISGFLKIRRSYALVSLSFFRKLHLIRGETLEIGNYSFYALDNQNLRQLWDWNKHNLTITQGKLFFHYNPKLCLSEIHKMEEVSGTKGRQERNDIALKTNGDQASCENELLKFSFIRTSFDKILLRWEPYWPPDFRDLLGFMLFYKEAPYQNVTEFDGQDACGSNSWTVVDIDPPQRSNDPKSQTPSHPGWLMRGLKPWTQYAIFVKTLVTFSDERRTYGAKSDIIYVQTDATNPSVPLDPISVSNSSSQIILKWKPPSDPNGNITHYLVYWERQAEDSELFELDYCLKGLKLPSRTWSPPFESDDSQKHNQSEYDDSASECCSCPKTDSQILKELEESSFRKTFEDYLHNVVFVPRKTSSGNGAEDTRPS
Sequence of Insulin receptor (P15127 764-1383 limits assumed): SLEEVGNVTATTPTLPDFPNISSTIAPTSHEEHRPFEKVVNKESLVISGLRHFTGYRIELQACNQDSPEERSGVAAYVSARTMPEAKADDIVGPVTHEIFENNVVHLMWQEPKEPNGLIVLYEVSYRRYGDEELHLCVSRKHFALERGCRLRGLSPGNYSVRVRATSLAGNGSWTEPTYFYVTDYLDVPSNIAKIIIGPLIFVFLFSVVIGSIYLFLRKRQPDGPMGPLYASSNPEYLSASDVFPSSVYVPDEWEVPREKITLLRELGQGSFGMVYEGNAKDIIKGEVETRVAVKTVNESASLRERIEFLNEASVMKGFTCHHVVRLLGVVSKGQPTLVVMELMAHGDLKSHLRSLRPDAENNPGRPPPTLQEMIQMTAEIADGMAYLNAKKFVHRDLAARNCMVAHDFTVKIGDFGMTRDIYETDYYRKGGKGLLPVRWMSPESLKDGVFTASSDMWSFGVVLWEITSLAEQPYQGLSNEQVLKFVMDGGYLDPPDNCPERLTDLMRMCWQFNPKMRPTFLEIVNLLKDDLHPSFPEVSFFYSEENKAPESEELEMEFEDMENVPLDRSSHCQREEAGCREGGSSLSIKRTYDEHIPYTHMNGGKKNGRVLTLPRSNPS

What is called IC50 is the concentration at which inhibition is half-maximal. `COS(C)(=O)=O` [METHANESULFONIC ACID METHYL ESTER]: the IC50 entry in assay [1], in assay [2] (cho-k1), in [3], in assay [4], in assay [5] and in assay [6] was “Not Active” in each case. The IC50 result in assay [7], in assay [8] and in assay [9] was “Not Active” in each case.
Regarding `COC(=O)c1ccc(O)cc1` [METHYLPARABEN], the IC50 entry in assay [1], in assay [2] (cho-k1), in [3], in assay [4], in [5] and in assay [6] was “Not Active” in each case. In addition, the IC50 entry in assay [7], in [8] and in assay [9] was “Not Active” each time.
In the case of `C[C@](N)(Cc1ccc(O)cc1)C(=O)O` [METYROSINE], the half-inhibitory concentration (IC50) entry in [1], in [2] (cho-k1), in [3], in assay [4], in [5] and in assay [6] was “Not Active” throughout. The IC50 result in [7], in assay [8] and in assay [9] was “Not Active” throughout.
For orientation: Ki means the dissociation constant of the complex between target and ligand, obtained from inhibition or displacement. Regarding `Clc1ccc(C(c2ccccc2Cl)C(Cl)Cl)cc1` (centres undefined) [MITOTANE], the IC50 result in assay [1] was “Not Active”; in assay [2] (read-out: IC50), 7.45 µM; in assay [3], “Not Active”; in assay [4], “Not Active”; in assay [5], “Not Active”; in assay [6], “Not Active”. Also, the IC50 result in assay [7], in [8] and in [9] was “Not Active” throughout. Also, the Ki in assay [2] (read-out: Ki) stood at 4.21 µM.
For `O=C1c2c(O)ccc(O)c2C(=O)c2c(NCCNCCO)ccc(NCCNCCO)c21` [MITOXANTRONE], the IC50 result in [1], in assay [2] (cho-k1), in assay [3], in assay [4], in assay [5] and in assay [6] was “Not Active” each time. Also, the IC50 entry in assay [7], in assay [8] and in [9] was “Not Active” each time.
Turning to `COc1c(C)c2c(c(O)c1C/C=C(\C)CCC(=O)OCCN1CCOCC1)C(=O)OC2` [MYCOPHENOLATE MOFETIL], the IC50 entry in assay [1], in [2] (cho-k1), in assay [3], in [4], in assay [5] and in assay [6] was “Not Active” throughout. Besides, the IC50 result in [7], in assay [8] and in assay [9] was “Not Active” throughout.
In the case of `NNc1ccccc1` [PHENYLHYDRAZINE], the IC50 entry in assay [1], in assay [2] (cho-k1), in assay [3], in assay [4], in assay [5] and in assay [6] was “Not Active” each time. Also, the IC50 result in assay [7], in assay [8] and in assay [9] was “Not Active” throughout.
As for `CC(=O)[C@H]1CC[C@H]2[C@@H]3CCC4=CC(=O)CC[C@]4(C)[C@H]3CC[C@]12C` [PROGESTERONE], the IC50 result in assay [1], in assay [2] (cho-k1), in [3], in [4], in assay [5] and in assay [6] was “Not Active” in each case. For the same molecule, the IC50 result in [7], in [8] and in assay [9] was “Not Active” in each case.
`NC(=O)c1ncn([C@@H]2O[C@H](CO)[C@@H](O)[C@H]2O)n1` [RIBAVIRIN]: the half-inhibitory concentration (IC50) result in assay [1], in assay [2] (cho-k1), in [3], in assay [4], in assay [5] and in [6] was “Not Active” each time. Also, the IC50 result in assay [7], in assay [8] and in assay [9] was “Not Active” each time.
Regarding `O=[N+]([O-])c1cc([As](=O)(O)O)ccc1O` [ROXARSONE], the IC50 entry in assay [1], in assay [2] (cho-k1), in assay [3], in [4], in assay [5] and in assay [6] was “Not Active” throughout. For the same molecule, the IC50 result in assay [7], in assay [8] and in assay [9] was “Not Active” each time. The Ki entry in assay [1], in assay [2] (cho-k1), in assay [3], in [4], in assay [5] and in assay [6] was “Not Active” throughout. Also, the Ki result in [7], in [8] and in [9] was “Not Active” throughout.
Consider `CC[C@H]1OC(=O)[C@H](C)[C@@H](O[C@H]2C[C@@](C)(OC)[C@@H](O)[C@H](C)O2)[C@H](C)[C@@H](O[C@@H]2O[C@H](C)C[C@H](N(C)C)[C@H]2O)[C@](C)(O)C[C@@H](C)/C(=N\OCOCCOC)[C@H](C)[C@@H](O)[C@]1(C)O` [ROXITHROMYCIN], for which the IC50 result in assay [1], in assay [2] (cho-k1), in assay [3], in [4], in assay [5] and in [6] was “Not Active” in each case. For the same molecule, the IC50 entry in assay [7], in assay [8] and in assay [9] was “Not Active” throughout.
